# Tests used:
# Format in all cases: in vivo, mouse
# [1] = tested on: carrageenan-induced inflammatory pain model mice; experiment: latency of withdrawal reflex to thermal stimulation (thermal hyperalgesia) in carrageenan-induced inflammatory pain model mice; details: given 6 h after carrageenan; for suppression of thermal hyperalgesia: intrathecal, examined over three hours (compound 2: 0.1, 1 or 10 pmol)
# Description: Before and after carrageenan (2%, 25 μl) was subcutaneously administered to a one-side hind limb sole of each mouse (male, C57BL/6J, ([…]), thermal stimulation was applied, and latency of a withdrawal reflex behavior of the hind limb was measured. The appearance of the phenomenon of thermal hyperalgesia due to carrageenan was checked over six hours after the administration, and thereafter, the compound 1 or a solvent used for dissolution (veh.) was administered orally (1 pmol or 10 pmol per 1 g of the mouse body). Effects were examined over two hours thereafter. The results are illustrated in FIG. 2.
# Before and after carrageenan (2%, 25 μl) was subcutaneously administered to a one-side hind limb sole of each mouse (male, C57BL/6J, 6 to 8 weeks old), mechanical stimulation or thermal stimulation was applied, and threshold (mechanical stimulation) and latency (thermal stimulation) of a withdrawal reflex behavior of the hind limb were measured. The appearance of the phenomenon of mechanical allodynia or the appearance of thermal hyperalgesia due to carrageenan was checked over six hours after the administration, and thereafter, the compound 2 was administered intrathecally (0.1 pmol, 1 pmol, or 10 pmol). Effects were examined over three hours thereafter. The solution of the compound 2 was prepared by dissolving the compound 2 in 99% DMSO, and diluting the same with physiological saline solution (0.2% DMSO in physiological saline solution).
# Before and after carrageenan (2%, 25 μl) was subcutaneously administered to a one-side hind limb sole of each mouse (male, C57BL/6J, 6 to 8 weeks old), mechanical stimulation or thermal stimulation was applied, and threshold (mechanical stimulation) and latency (thermal stimulation) of a withdrawal reflex behavior of the hind limb were measured. The appearance of the phenomenon of mechanical allodynia or the appearance of the thermal hyperalgesia due to carrageenan was checked over six hours after the administration, and thereafter, the compound 4 was administered intrathecally. Effects were examined over three hours thereafter. The solution of the compound 4 was prepared by dissolving the […] in 99% DMSO, and diluting the same with physiological saline solution (0.2% DMSO in physiological saline solution). The results are illustrated in FIG. 5.
# Before and after carrageenan (2%, 25 μl) was subcutaneously administered to a one-side hind limb sole of each mouse (male, C57BL/6J, 6 to 8 weeks old), thermal stimulation was applied, and latency of a withdrawal reflex behavior of the hind limb was measured. The appearance of the phenomenon of thermal hyperalgesia due to carrageenan was checked over six hours after the administration, and thereafter, the compound 5 was administered intrathecally. Effects were examined over three hours thereafter. The solution of the compound 5 was prepared by dissolving the compound 5 in 99% DMSO, and diluting the same with physiological saline solution (0.2% DMSO in physiological saline solution). The results are illustrated in FIG. 6.
# Before and after carrageenan (2%, 25 μl) was subcutaneously administered to a one-side hind limb sole of each mouse (male, C57BL/6J, 6 to 8 weeks old), thermal stimulation was applied, and latency of a withdrawal reflex behavior of the hind limb was measured. […]
# [2] = tested on: carrageenan-induced inflammatory pain model mice; experiment: von Frey test, mechanical allodynia in carrageenan-induced inflammatory pain model mice; details: for threshold of withdrawal reflex behavior to mechanical stimulation (FIG. 3A, FIG. 5A): intrathecal, given 6 h after carrageenan, examined over three hours (compound 2: 0.1, 1 or 10 pmol)
# Description: After subcutaneous plantar administration of carrageenan, acute inflammation develops over several hours, which causes a phenomenon of hypersensitivity to mechanical stimulation and thermal stimulation. A therapeutic agent containing the compound 1 as an active ingredient was administered to each of model mice of this carrageenan-induced inflammatory pain, and pain was evaluated.
# More specifically, at seven hours after carrageenan was subcutaneously administered to a hind limb sole of each mouse (male, C57BL/6J, 6 to 8 weeks old), the compound 1 was administered orally, and at one hour after the administration of the compound 1, therapeutic effects thereof with respect to mechanical allodynia were determined. Specific conditions are as follows.
# Mouse: C57BL/6J, male, 8 weeks old, n =4 (each foot, n=8) Induction of pain: 25 μL of physiological saline solution containing 2% of λ-carrageenan was injected subcutaneously to hind limb soles, so that pain was induced. […]
# Evaluation of pain: Evaluation was performed by von Frey test. More specifically, a hind limb sole of the mouse was mechanically stimulated with tips of von-Frey filaments having a variety of thicknesses, and a load of stimulation at which the mouse initiated a withdrawal behavior was determined. […]
# (§1) Before and after carrageenan (2%, 25 μl) was subcutaneously administered to a one-side hind limb sole of each mouse (male, C57BL/6J, 6 to 8 weeks old), mechanical stimulation or thermal stimulation was applied, and threshold (mechanical stimulation) and latency (thermal stimulation) of a withdrawal reflex behavior of the hind limb were measured. […]
# as §1
# [3] = tested on: carrageenan-induced inflammatory pain model mice; experiment: von Frey test with simultaneous administration of compound and opioid antagonist in carrageenan-induced inflammatory pain model mice; details: intraperitoneal, compound 1 nmol/g plus opioid antagonist 20 nmol/g, 7 h after carrageenan, evaluated at 1 h and 3 h
# Description: Carrageenan was subcutaneously injected to a hind limb sole of each mouse, and seven hours later, the compound 1 and an opioid antagonist were simultaneously administered intraperitoneally. At one hour after the administration and at three hours after the administration, therapeutic effects with respect to mechanical allodynia were evaluated. Specific conditions were as follows.
# Mouse: C57B116J, male, 8 weeks old
# Induction of pain: Pain was induced by subcutaneously injecting 20 μL of physiological saline solution containing 2% λ-carrageenan to a hind limb sole.
# Administration of therapeutic agent: 1% Tween80 (trademark) physiological saline solution containing 2% DMSO in which the compound 1 and an opioid antagonist described below were dissolved was administered intraperitoneally, in an amount of 0.01 mL per 1 g of the body weight (about 0.2 mL of the solution was administered per one mouse). The compound 1 was prepared so as to be 1 nmol per 1 g of the body weight of the mouse. The opioid antagonist was prepared so as to be 20 nmol per 1g of the body weight of the mouse.
# Opioid antagonist MNTX: Methylnaltrexone bromide Antagonist selective to a […]. Unable to pass through the blood-brain barrier.
# Opioid antagonist NAL-M: Naloxone methioclide Antagonist not selective to an opioid receptor. Unable to pass through the blood-brain barrier. […]
# [4] = tested on: complete Freund's adjuvant-induced inflammatory pain model mice; experiment: threshold of withdrawal reflex to mechanical stimulation in complete Freund's adjuvant-induced inflammatory pain model mice; details: intrathecal, three days after CFA, examined over three hours
# Description: Subcutaneous plantar administration of complete Freund's adjuvant (CFA) caused prolonged inflammation, which was more persistent than the inflammation caused in the carrageenan models, and this caused phenomena of hypersensitivity to mechanical stimulation and thermal stimulation. Using these CFA model mice, pain therapy effects of the compound 3 were evaluated. Before and after CFA (25 μl) was subcutaneously administered to a one-side hind limb sole of each mouse (male, C57BL/6J, 6 to 8 weeks old), mechanical stimulation was applied, and threshold of a withdrawal reflex behavior of the hind limb was measured. The appearance of the phenomenon of mechanical allodynia due to CFA was checked three days after the administration, and the compound 3 was administered intrathecally. Effects were examined over three hours thereafter. The solution of the compound 3 was prepared by dissolving the compound 3 in 99% DMSO, and diluting the same with physiological saline solution (0.2% DMSO in physiological saline solution). The results are illustrated in FIG. 4.
Structure (SMILES),suppression of thermal hyperalgesia [1],"threshold of withdrawal reflex behavior to mechanical stimulation (FIG. 3A, FIG. 5A) [2]",other results
CCN1/C(=C/C(C)=O)Sc2c(OC)cccc21 [compound 4],significantly suppressed,significantly suppressed,
"CCN1/C(=C/C(C)=O)Sc2ccc(Br)cc21 [compound 5, (1Z)-1-(5-bromo-3-ethyl-2(3H)-benzothiazoylidene)-2-propanone]",significantly suppressed,,
"CCN1/C(=C/C(C)=O)Sc2ccc(F)cc21 [compound 1, (1Z)-1-(3-ethyl-5-fluoro-2(3H)-benzothiazolylidene)-2-propanone]",,,"therapeutic effect on thermal hyperalgesia (latency of withdrawal reflex to thermal stimulation), FIG. 2 ([1]; oral, 1 pmol or 10 pmol per 1 g of mouse body, examined over two hours): significantly reduced; therapeutic effect on mechanical allodynia (threshold load of withdrawal behavior, von Frey filaments), FIG. 1 ([2]; oral, 1 nmol per 1 g body weight, 7 h after carrageenan, evaluated 1 h after administration, C57BL/6J male mice): significantly reduced; analgesic action on mechanical allodynia with simultaneous opioid antagonist (MNTX or NAL-M), FIG. 8 [3]: hindered by a peripheral opioid antagonist"
"CCN1/C(=C/C(C)=O)Sc2ccc(Cl)cc21 [compound 6, (1Z)-1-(5-chloro-3-ethyl-2(3H)-benzothiazoylidene)propan-2-one]",significantly suppressed,,
CCN1/C(=C/C(C)=O)Sc2ccc(OC)cc21 [compound 2],significantly reduced,significantly reduced,
"CCN1/C(=C/C(C)=O)Sc2cc(OC)ccc21 [compound 3, (1Z)-1-(3-ethyl-6-methoxy-2(3H)-benzothiazoylidene)-2-propanone]",,,"threshold of withdrawal reflex behavior to mechanical stimulation, FIG. 4 [4]: significantly suppressed"

# Reference: patent publication US9745275B2, “Pain-related compound and medical composition” (KYOTO UNIVERSITY, priority 2013, dated 2017)
